Among the data in PubChem BioAssay AID1645864 (Buhrlage Lab, Dana-Farber Cancer Institute and Novartis …, 2021) are IC50 values, retold here.

Active and inactive are the calls of the source.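 How the source made its calls: active means maximal inhibition of USP17 at or above 30% in the confirmation dose-response, a value not among the printed readouts; inactive means the rest.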

The experiment deals with Ubiquitin carboxyl-terminal hydrolase 17-like protein 5 (Homo sapiens) (UniProt A8MUK1). Nature of the experiment: ubiquitin-specific protease 17 inhibitors, concentration series, biochemical, verification of primary actives (AID 1645864). Conditions: purified USP17, ubiquitin-rhodamine cleavage fluorescence, 3 h.
Sequence of Ubiquitin carboxyl-terminal hydrolase 17-like protein 5 (Homo sapiens) (A8MUK1 whole entry, looked up): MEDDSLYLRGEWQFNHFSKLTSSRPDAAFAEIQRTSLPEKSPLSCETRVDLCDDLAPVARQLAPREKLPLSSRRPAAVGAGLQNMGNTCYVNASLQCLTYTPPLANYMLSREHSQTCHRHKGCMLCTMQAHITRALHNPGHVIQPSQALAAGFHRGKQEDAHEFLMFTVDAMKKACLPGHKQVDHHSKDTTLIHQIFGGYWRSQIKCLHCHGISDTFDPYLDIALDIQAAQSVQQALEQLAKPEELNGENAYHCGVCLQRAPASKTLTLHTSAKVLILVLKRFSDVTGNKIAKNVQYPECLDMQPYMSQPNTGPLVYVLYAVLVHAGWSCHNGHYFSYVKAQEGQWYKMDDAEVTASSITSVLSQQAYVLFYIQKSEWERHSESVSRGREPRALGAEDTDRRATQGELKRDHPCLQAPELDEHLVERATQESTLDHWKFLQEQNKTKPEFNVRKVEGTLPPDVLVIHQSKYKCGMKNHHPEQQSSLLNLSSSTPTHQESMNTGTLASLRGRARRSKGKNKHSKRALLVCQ
On to `COc1ccc(-c2nc3n(n2)C(c2cccc(O)c2)C2=C(CCCC2=O)N3)cc1` (stereo not given), for which the IC50 is 41.4 µM.

For the compound `CC(=O)c1ccc(NC(=O)C[n+]2cc(-c3ccc(Cl)cc3)n3c2CCC3)cc1`, the IC50 was 32.1 µM.

Turning to `O=C1CC(C(=O)Nc2ccc(F)cc2)n2nc(SCc3ccccc3)nc2N1` (stereo not given), the IC50 is 38.3 µM.

As for `Cc1ncncc1C(=O)N1CCCC(C)(c2ncc(Cc3cccc(F)c3)o2)C1` (stereo not given), the IC50 is > 50 µM (inactive).

For the compound `CC1CCN(C(=O)c2cn(-c3cc(N4CCC(C)CC4)ncn3)cn2)CC1`, the IC50 is > 50 µM (inactive).

On to `COc1ccc(NC(=O)C2CC(=O)Nc3cc(-c4ccccc4)nn32)cc1` (stereo not given), for which the IC50 was 22.9 µM.

Take `Cc1cccc(O)c1-c1nc2c(-c3nc4c(C(=O)O)cccc4o3)cccc2o1`: the IC50 is > 50 µM (inactive).

`Cc1cccc(NC(=O)CSc2nnc(-c3n[nH]c4c3CCC4)n2N)c1C`: the IC50 is 18.1 µM.

In the case of `CC1=C(c2ccc(C)c(C)c2)S(=O)(=O)NC1=NCC(=O)NCCc1ccc(C)cc1`, the IC50 was 46.1 µM.

For the compound `O=C(CSc1nnc(CNC(=O)c2ccccc2F)o1)Nc1ccc(OC(F)(F)F)cc1`, the IC50 was 33 µM.

Consider `Cc1cc(NC(=O)c2[nH]nc3c2CCc2ccccc2-3)no1`, for which the concentration for half-maximal inhibition (IC50) was 3.28 µM.

`COc1ccccc1-c1nc(-c2cn(-c3ccc(C)cc3)nn2)no1`: the IC50 was 28.9 µM.

Regarding `Nc1c(C(=O)c2cccs2)oc2nc(-c3ccccc3)cc(-c3ccco3)c12`, the IC50 is > 50 µM (inactive).

Take `COc1ccc2c(c1)CCc1c(C(=O)NCc3cccnc3)noc1-2`: the IC50 is 25.2 µM.

As for `O=C1Oc2nc3ccccc3cc2CN1Cc1ccco1`, the half-inhibitory concentration (IC50) was 23.9 µM.

As to `COc1ccc(-c2cc3c(=O)n(CC(=O)Nc4ccccc4F)ccn3n2)cc1OC`, the IC50 is 3.97 µM.

With `Cc1sc2ncnc(OCc3ccc(F)cc3Cl)c2c1C`, the IC50 was > 50 µM (inactive).

For the compound `Cc1nc(-c2cccc(NC(=O)c3ccccc3Cl)c2)no1`, the IC50 is > 50 µM (inactive).

Consider `O=C(Nc1ccc(Br)cn1)c1nc2ccccc2nc1N1CCCCC1`, for which the IC50 was > 50 µM (inactive).

In the case of `CSc1nc2ncc3c(=O)n(CCc4ccccc4)ccc3n2n1`, the IC50 was > 50 µM (inactive).

As for `CC1OC(CC(=O)O)CC23OC12C(=O)c1c(O)cccc1C3=O` (stereo not given), the IC50 was 1.33 µM.

On to `COc1cccc2c1NC(=O)C21CCN(C(=O)Nc2cccc3ccccc23)CC1`, for which the IC50 was > 50 µM (inactive).

`COc1cccc(OCCCn2c(C(C)NC(=O)c3ccco3)nc3ccccc32)c1` (stereo not given): the IC50 is 33.5 µM.

Turning to `Cc1ccccc1-c1noc(-c2ccccc2OCC(=O)NC(C)C)n1`, the IC50 was > 50 µM (inactive).

On to `CCn1ccc2c(cc(C(=O)Nc3cccc(OC)c3)n2C)c1=O`, for which the IC50 was > 50 µM (inactive).

For `CCCCCCCCCC(CCCCCCCCCC(=O)O)O[C@H]1O[C@@H](COC(C)=O)[C@H](O)[C@@H](O)[C@H]1OC(=O)CC(=O)O` (stereo not given in full), the IC50 is 22.8 µM.

With `CC(C)(C)C(=O)Nc1ccc(SCc2nnc(-c3ccccc3)o2)cc1`, the IC50 was > 50 µM (inactive).

For the compound `N#C/C(=C/c1sc(N2CCOCC2)nc1-c1ccccc1)c1ccccn1`, the IC50 is > 50 µM (inactive).

As for `COC(=O)c1cc2c(ccn2C)n1CC(=O)NC1CCCC1`, the IC50 was > 50 µM (inactive).

In the case of `O=C(Cn1cnc2c(oc3ccccc32)c1=O)NCc1ccccc1Cl`, the IC50 is 14.5 µM.

With `COc1c(O)c(O)c2c(=O)cc(-c3ccc(O)cc3)oc2c1OC`, the IC50 was 38.5 µM.

On to `CO[C@H]1[C@@H](O)[C@H](C)O[C@H](O[C@H]2[C@H](Oc3cccc4c(O)c5c(=O)oc6ccc(C)c7c(=O)oc(c34)c5c67)O[C@H](C)[C@H](O)[C@@H]2O)[C@@H]1O`, for which the IC50 is > 50 µM (inactive).

In the case of `O=C(Cn1cccc1-c1nc(-c2ccccc2)cs1)N1CCOCC1`, the IC50 was 16 µM.

As for `CC(C)(C)c1ccc(C(=O)Nc2ccc(Cn3cncn3)cc2)cc1`, the IC50 was > 50 µM (inactive).

As to `COc1cc2c(cc1NC(=O)c1ccc(-n3cnnn3)cc1)oc1ccccc12`, the IC50 is 0.691 µM.

`O=c1c(Nc2cccc(F)c2)nc2ccncc2n1Cc1ccccc1`: the IC50 is 12.5 µM.

As for `Cc1oc(C2CC2)cc1C(=O)N1CCC2(CC1)CC1(CO2)Nc2ccccc2-n2cccc21` (stereo not given), the IC50 was > 50 µM (inactive).

On to `O=C(OCCCN1C(=O)c2cccc3c(N4CCCCC4)ccc(c23)C1=O)c1ccccn1`, for which the IC50 was > 50 µM (inactive).

Consider `COc1cnc(-c2ccccn2)nc1Sc1ccccc1Cl`, for which the concentration for half-maximal inhibition (IC50) was 16.2 µM.

Turning to `Fc1cc(F)c2[nH]cc(-c3nnnn3-c3ccc4ccccc4c3)c2c1`, the half-inhibitory concentration (IC50) is 6.56 µM.

Consider `Cc1csc2ncc(C(=O)N3CCN(c4ccccc4F)CC3)c(=O)n12`, for which the IC50 was > 50 µM (inactive).

Regarding `COc1ccc(-c2nc3n(n2)C(CC(=O)Nc2cccc4ccccc24)C(=O)N3)cc1` (stereo not given), the IC50 was 8.65 µM.

On to `CCCOc1ccc(C(=O)Nc2ccc(S(=O)(=O)Nc3cc(C)nc(C)n3)cc2)cc1`, for which the IC50 was > 50 µM (inactive).

For the compound `Cc1cc(C)nc(-n2nc(C)c3c2NC(=O)CSC3c2ccc(F)cc2F)n1` (stereo not given), the IC50 was 37.5 µM.

`COc1ccc(S(=O)(=O)Nc2ccc(Nc3ccc(-n4cccn4)nn3)cc2)cc1`: the IC50 was 44.9 µM.

Turning to `CCCCCC(=O)N1c2ccccc2NC2=C(C(=O)CC(c3ccc(C(C)(C)C)cc3)C2)C1c1ccncc1` (stereo not given), the IC50 is 4.7 µM.

In the case of `O=C(Cc1ccccc1F)N1CCC2(CC1)CC1(CO2)Nc2ccccc2-n2cccc21` (stereo not given), the IC50 is > 50 µM (inactive).

As for `COc1cccc(N2CCN(c3ccc4nnc(CCC(=O)N5CCc6ccccc6C5)n4n3)CC2)c1`, the IC50 is 28.2 µM.

`O=C(Cc1cc(-c2ccc(F)cc2)on1)NCc1ccccc1`: the IC50 is 15.9 µM.

On to `O=C(CSc1ncnc2c1sc1cccc(F)c12)N1CCCCCC1`, for which the IC50 is > 50 µM (inactive).

On to `COc1cccc(-c2nc(C(N)=O)c3[nH]c(=O)n(-c4cccc(Cl)c4)c3n2)c1OC`, for which the IC50 was > 50 µM (inactive).

Turning to `Cn1nccc1C(=O)N1CCCCC1c1ncc(Cc2ccc(Cl)cc2)o1` (stereo not given), the IC50 was > 50 µM (inactive).

As for `COCCCn1c(C(=O)NCCc2ccccc2)cc2c(=O)n3cccc(C)c3nc21`, the IC50 was 28.5 µM.

With `O=C1C[C@@H](O)[C@H](O)[C@@]23O[C@@]12C1(Oc2cccc4cccc(c24)O1)[C@@H]1O[C@@H]1[C@@H]3O`, the IC50 was 22 µM.

Consider `CCn1cc(-c2nc(-c3ccccn3)no2)c(=O)c2cc(F)ccc21`, for which the IC50 was 32.5 µM.

For `Cc1cc(/C=C2/C(=N)N3C(c4ccccc4)=CSC3=NC2=O)c(C)n1-c1ccc(F)cc1`, the IC50 is > 50 µM (inactive).

Regarding `COc1ccc(OC)c2c(C)cc(N3CCN(S(=O)(=O)c4ccc5c(c4)CCCN5S(C)(=O)=O)CC3)nc12`, the IC50 is 9.83 µM.

For the compound `O=C(/C=C/c1ccco1)c1cccc([N+](=O)[O-])c1`, the IC50 is 22.6 µM.

Turning to `N[C@@H](Cc1ccccc1)C(=O)N1CCC2(CC1)CN(C(=O)c1ccc(Cl)cc1)CCO2`, the IC50 was > 50 µM (inactive).

As for `COc1cccc(C(=O)NCC(=O)Nc2nc3ccccc3[nH]2)c1`, the IC50 is 38.6 µM.

For `O=C(NCCc1ccco1)c1ccc(N2CCOc3ccccc32)s1`, the IC50 is 15.4 µM.

As for `COc1cccc(-c2cc(=O)[nH]c(Nc3nc(C)c4ccccc4n3)n2)c1`, the IC50 is 43.1 µM.

`COc1ccc(NC(=O)c2nnn(-c3ccccc3C)c2C)cc1OC`: the IC50 was > 50 µM (inactive).

For the compound `COCCn1c(=O)[nH]c2cc(C(=O)NCCNc3ccc([N+](=O)[O-])cc3C#N)ccc2c1=O`, the IC50 was 3.57 µM.

Consider `O=C(COC(=O)c1ccc(Cl)cc1)Nc1ccc2[nH]c(=O)[nH]c2c1`, for which the IC50 was 9.91 µM.

With `CC(C)(C)C(=O)NC(c1ccccc1)c1nnc(N2CCOCC2)o1` (stereo not given), the IC50 is > 50 µM (inactive).

Take `CC(NC(=O)c1ccccc1)c1nc2ccccc2n1CC(=O)Nc1ccc2c(c1)OCO2` (stereo not given): the IC50 is 2.25 µM.

Regarding `O=C(CCc1nnc2n(Cc3ccccc3)c(=O)c3ccccc3n12)N1CCN(c2ccccn2)CC1`, the 50% inhibitory concentration (IC50) is 11.3 µM.

Turning to `Cc1noc(-c2cccc(=O)n2CC(=O)Nc2ccc(C)c(C)c2)n1`, the IC50 is 20.5 µM.

As for `COc1ccc(CCn2cnc3c4ccccc4n(C)c3c2=O)cc1OC`, the IC50 is > 50 µM (inactive).

Take `CCCc1c(C(=O)O)c(O[C@H]2O[C@H](C)[C@@H](OC)[C@H](OC)[C@@H]2OC)cc2cc3c(c(O)c12)C(=O)c1c(O)cc(O[C@@H]2O[C@@H](C)[C@H](O[C@H]4O[C@H](C)[C@@H](OC)[C@H](OC)[C@@H]4O)[C@@H](OC)[C@H]2O)cc1C3=O`: the IC50 was > 50 µM (inactive).

`O=C(NCc1cccnc1)c1cnn2c(C(F)(F)F)cc(-c3ccc(F)cc3)nc12`: the IC50 is 27.7 µM.

In the case of `CC1Oc2cc3c(-c4c(O)cc(O)c5c(O)c6c(cc45)OC(C)C(C)C6=O)c(O)cc(O)c3c(O)c2C(=O)C1C` (stereo not given), the IC50 was 1.25 µM.

For the compound `CCOc1ccc(Nc2cc(C(=O)NCCc3ccccc3)c3ccccc3n2)cc1`, the IC50 is 24.1 µM.

For `Cc1ccc2c(c1)[C@]1(C(=O)N2)[C@@H]2C(=O)N(c3cccc(C(F)(F)F)c3)C(=O)[C@@H]2C2CCCN21` (stereo not given in full), the IC50 was > 50 µM (inactive).

Take `CSc1nc(Cc2ccc(Cl)cc2)nc2ccccc12`: the IC50 is > 50 µM (inactive).

As for `Cc1c(OCC(=O)Nc2nc3ccccc3[nH]2)ccc2c3c(c(=O)oc12)CCC3`, the half-maximal inhibitory concentration (IC50) is 0.339 µM.

Take `O=C(O)c1nccnc1C(=O)N1CCc2ccccc2C1`: the IC50 was > 50 µM (inactive).

For `Cc1ccc(C)c(NC(=O)CCc2nc(CSc3nc4ccccc4o3)no2)c1`, the half-maximal inhibitory concentration (IC50) was 33.9 µM.

As to `Cc1nc(CN2CCn3c(Cn4cccn4)cnc3C2C)cs1` (stereo not given), the IC50 is > 50 µM (inactive).

Take `Cc1ccc(S(=O)(=O)c2cnc(SCC(=O)Nc3ccc(Cl)cc3)nc2N)cc1C`: the IC50 is 29.8 µM.

In the case of `Cc1cnc2nc3c(cc2c1)CN(CCc1ccc(Cl)cc1)CC3`, the IC50 was > 50 µM (inactive).

Take `Cc1ccc(C(=O)NCc2ccc(C(=O)Nc3cccc(C)c3)o2)cc1`: the IC50 was 32.5 µM.

As to `CSc1ncc(C(=O)NC(C)c2ccccc2)c(-c2ccccc2)n1` (stereo not given), the IC50 is 20.5 µM.

As to `O=S(=O)(c1ccccc1)N1CCN2Cc3ccccc3N(Cc3ccccc3)CC2C1` (stereo not given), the IC50 is > 50 µM (inactive).

For orientation: IC50 means the concentration that gives 50% inhibition.
